Data published in patent US20040122209A1, “Products for regulating the degradation of collagen and methods for identifying same” (Shriners Hospital For Children, priority 2002, published 2004).

Columns and labels:
MMP-13 = test: RT-PCR of MMP-13 mRNA in human chondrocyte culture; assay type: cell-based; conditions: 24 hours incubation; data not shown
Source text: Isolated normal human chondrocytes were used for chondrocyte cultures, detection of integrin expression by FACScan, and cell attachment assays. The dissected normal human cartilage obtained at autopsy was cut into small cubes 2-4 mm in size. Chondrocytes were isolated as previously described (34), with some modifications. Briefly, the cubes were washed three times with medium (A). Thereafter, the diced cartilage was digested with 0.1% (wt/vol) trypsin (Sigma) and 0.02% (wt/vol) EDTA (Sigma) for 60 minutes (25 ml/10 g wet weight tissue) at 37° C. After washing the cartilage with Medium A containing 10% heat-inactivated fetal calf serum (FCS) to inhibit the trypsin, the digestion was continued in the same medium with serum (50 ml/10 g wet weight tissue) containing 0.2% (wt/vol) collagenase (type IA; Sigma) for 16 h at 37° C. with gentle agitation on a gyrotary shaker. Undigested cartilage was removed by filtration through a layer of nylon mesh (Cell Strainer; Becton Dickinson Labware, NJ). […]
Total RNA was isolated from chondrocytes or cartilage explants by the guanidine isothiocyanate procedure according to Chomczynski and Sacchi (Chomczynski, P. et al., Anal. Biochem. 162:156-9 (1987)) with some modifications. […] The total RNA pellet was resuspended in diethyl pyrocarbonate-treated (DEPC) water and the amount of total RNA was measured by reading optical density at 260 nm. […]

ERK1/2 = test: Western immunoblot for phosphorylated ERK1/2 in human chondrocytes; assay type: cell-based
Protocol: To detect activation of MAP kinases (ERK1/2, p38 MAPK, and JNK1/2), first-passaged chondrocytes plated onto 10-cm culture dishes were incubated with CB12-II (SP), USP, TNF-α, native human type II collagen, human fibronectin, and antibodies to α2β1 and α5β1 for 5-60 min. In some experiments, chondrocytes were precultured with U0126 (inhibitor of phosphorylation of MEK1/2, up-stream kinase molecule of ERK1/2) at 1 μM for 1 h, SB203580 (inhibitor of phosphorylation of p38 MAPK) at 1 μM for 1 h, Herbimycin A (tyrosine kinase inhibitor) at 1 μg/ml for overnight, Wortmannin (PI3 kinase inhibitor) at 100 nM for 1 h, and Cytochalasin D (focal adhesion inhibitor) at 3 μM for 30 or 60 min before adding peptides.
After a variable but designated incubation time, chondrocytes were washed twice with ice cold PBS and lysed in RIPA buffer (10 mM Tris/HCl, pH 7.4, 0.1% SDS, 1% NP-40, 0.1% sodium deoxycholate, 150 mM NaCl, 1 mM EDTA) containing freshly added proteinase and phosphatase inhibitors (1 mM PMSF, 10 μg/ml leupeptin, 1 μg/ml aprotinin, 1 mM Na3VO4, 1 mM NaF). Cell lysate was centrifuged and supernatant was collected. Protein concentration was determined using Bradford's method. Equal amounts of protein were separated on 10% SDS-polyacrylamide gels under reducing conditions and were electrotransferred to a nitrocellulose membrane (Bio-Rad). To block nonspecific binding, the membranes were incubated in PBS containing 5% non-fat milk overnight at 4° C. The membranes were then probed with rabbit antibodies against phosphorylated ERK1/2, p38, and JNK1/2 (New England BioLabs). Antibodies were diluted 1:1000 in PBS containing 0.5% non-fat milk and reacted with the membrane for 1 h at room temperature. Blots were washed with PBS containing 0.1% Tween-20 three times, and incubated for 1 h at room temperature with horseradish peroxidase (HRP)-conjugated goat anti-rabbit IgG (New England BioLabs) diluted 1:2000 with PBS-0.1% Tween 20 for ECL system (Amersham). Then, the membranes were washed with PBS-Tween, and the membranes were detected with the addition of a 1:1 dilution of the ECL detection reagents (Amersham) 1 and 2 for 1 min. The solution was removed, and the membranes were wrapped in plastic wrap and exposed to film for various amounts of time.
First-passaged confluent human chondrocytes were treated with CB12-II (SP) (10 μM), USP (10 μM), anti-α2β1and α5β1 antibodies, anti-integrin α2β1 blocking antibody, and IL-1β or TNF-α. Cell lysates were immunoblotted using antibody that detects phosphorylated p-ERK1I/2 or p-MEK. In some experiments, U0126 at 10 μM, a specific inhibitor of an upstream molecule, MEK1/2, that activates ERK1/2, and SB203580 at 10 μM, that inhibits p38 MAPK activity, were added to the culture 1 h before peptides, antibodies, and cytokines. Herbimycin A, cytochalasin D, and wortmannin were also used as inhibitors.

ERGPPGPQGARGFPGTPGLPGVK [CB12-II]
MMP-13 gene expression (mRNA by RT-PCR) (MMP-13): weakly upregulated | phosphorylation of ERK1/2 compared with USP at the same concentration (ERK1/2; 10 μM): more than USP | time of maximum ERK1/2 phosphorylation (ERK1/2; 10 μM): 15 to 30 min | time to phosphorylation of ERK1/2 after adding peptide (ERK1/2; 10 μM): ≤ 5 min | phosphorylation of ERK 1/2, dose dependence (ERK1/2; 1, 10 and 50 μM, 15 min after addition): dose-dependently
